Test results reported in patent US10849886B2, “Combination therapy using azabicyclo compound for cancer” (TAIHO PHARMACEUTICAL CO., LTD., priority 2013, dated 2020).

Key:
[1] = tested on: NCI-N87 tumor; experiment: Nude mouse xenograft, stomach cancer line NCI-N87, tumor growth (T/C); format: in vivo, nude mice; details: Compound 1 5 mg/kg orally, cisplatin 7 mg/kg intravenously on first day, alone or combined; test end date
[2] = tested on: NCI-H2170 tumor; experiment: Nude mouse xenograft, NSCLC NCI-H2170, tumor growth (T/C); format: in vivo, nude mice; details: Compound 1 5 mg/kg orally, docetaxel 15 mg/kg intravenously on first day, alone or combined; RTV ratio to control on test end date
Protocol: NCI-H2170 (ATCC #CRL-5928) as a human non-small cell lung cancer (NSCLC) cell line was obtained from American Type Culture Collection (ATCC; Manassas, Va., USA). In RPMI-1640 (containing 4.5 g/L of glucose, 10 mM of HEPES, and 1 mM of sodium pyruvate) (Wako Pure Chemical Industries, Ltd.) medium supplemented with 10% fetal bovine serum (FBS), cell lines were cultured. The cells cryopreserved in liquid nitrogen were quickly thawed at 37° C., transferred to a tissue culture flask containing a medium, and allowed to grow in a 5% CO2 incubator at 37° C. The NCI-H2170 cell lines were sub-cultured once to twice a week at a dilution ratio of 1:5 to 1:10. […]
Subsequently, the cell was allowed to grow for one to two weeks after transplantation until the tumor volume (TV) reached 100 to 300 mm^3. Digimatic Caliper was used in measurement of the tumor diameter, the major axis and the minor axis of the tumor were measured, and TV was calculated by the following formula. […]
Animals having an extremely small or large tumor volume were excluded and the remaining animals were allocated to each group by a stratified randomization allocation method using TV as an index. A relative tumor volume (RTV) was calculated from TV as an endpoint. […] RTV and T/C (%) were calculated by the following formula. […]

[3] = tested on: NCI-H441 tumor; experiment: Nude mouse xenograft, NSCLC NCI-H441, tumor growth (T/C); format: in vivo, nude mice; details: Compound 1 5 mg/kg orally, paclitaxel 30 mg/kg intravenously on first day, alone or combined; test end date
[4] = tested on: SBC-1 tumor; experiment: Nude mouse xenograft, small cell lung cancer line SBC-1, tumor growth (T/C); format: in vivo, nude mice; details: Compound 1 28 mg/kg orally on Days 1, 3, 5, 8, 10, 12, amrubicin […] intravenously on first day, alone or combined; test end date
[5] = Storage stability of Compound 1 suspension in 0.5% hypromellose aqueous solution; format: physicochemical; details: stored in refrigerator
Protocol: In order to administer Compound 1, a 0.5% hypromellose aqueous solution was prepared. Hypromellose was weighed in a beaker, and distilled water (Otsuka Pharmaceutical Factory, Inc.) was added thereto in an amount of about 80% of the preparation amount. The mixture was completely dissolved by being stirred overnight using a stirrer at a low-temperature chamber, the resultant solution was transferred to a measuring cylinder, and distilled water was added to dilute to the preparation amount. Compound 1 was weighed in a necessary amount, pulverized with an agate mortar, suspended with a 0.5% hypromellose aqueous solution to have a predetermined concentration, and then subjected to ultrasonic treatment, thereby obtaining a homogeneous suspension. 10 mL of this suspension was administered orally per kg of body weight. Incidentally, the suspension was stored in a refrigerator at times other than administration.

stability of suspension [5]	Compound	T/C value [1] [%]	T/C value [2] [%]	T/C value [3] [%]	T/C value [4] [%]
refrigerator-stable for two weeks	CCc1cc(C(N)=O)ccc1-n1nc(C(C)C)c2c(-n3cnc(-c4cnn(C)c4)c3)ccnc21 [Compound 1, 3-ethyl-4-{3-isopropyl-4-(4-(1-methyl-1H-pyrazol-4-yl)-1H-imidazol-1-yl)-1H-pyrazolo[3,4-b]pyridin-1-yl}benzamide]	51	72	63	49
	CC(=O)[C@]1(N)Cc2c(O)c3c(c(O)c2[C@@H](O[C@H]2C[C@H](O)[C@H](O)CO2)C1)C(=O)c1ccccc1C3=O [amrubicin, reference compound]				40
	N.N.[Cl][Pt][Cl] [cisplatin, reference compound]	65			
	CC(=O)O[C@@]12CO[C@@H]1C[C@H](O)[C@@]1(C)C(=O)[C@H](O)C3=C(C)[C@@H](OC(=O)[C@H](O)[C@@H](NC(=O)OC(C)(C)C)c4ccccc4)C[C@@](O)([C@@H](OC(=O)c4ccccc4)[C@H]21)C3(C)C [docetaxel, reference compound]		86		
	CC(=O)O[C@H]1C(=O)[C@@]2(C)[C@H]([C@H](OC(=O)c3ccccc3)[C@]3(O)C[C@H](OC(=O)[C@H](O)[C@@H](NC(=O)c4ccccc4)c4ccccc4)C(C)=C1C3(C)C)[C@]1(OC(C)=O)CO[C@@H]1C[C@@H]2O [paclitaxel, reference compound]			41	
